According to patent US20080207496A1, “ORGANIC COMPOUND” (priority 2003, published 2008):
Where two headings read alike, the source gives them in different places.

Assays:
[1] = test system: Peripheral blood mononuclear cells (PBMCs); details: ConA +
[2] = test system: peripheral blood mononuclear cells; test: Intracellular calcium kinetics after PHA, flow cytometry (fluo-4/Fura-red); assay type: cell-based, human; details: PHA 20 μg/ml; at micromolar concentrations
Procedure: Intracellular Calcium Kinetics. Human PBMC's are resuspended in calcium-free PBS and loaded with the calcium indicator dyes Fura-red and fluo-4 for 1 hour at room temperature shielded from light. […] At the end of dye loading, cells are washed in PBS and resuspended in RPMI 1640 and placed in growth conditions. One million cells of each sample are then analyzed by a flow cytometer and the mean FL-1 and FL-3 channels recorded every 8 seconds for a total of 240 seconds. At least eight thousand events are acquired during each eight-second interval. PHA (20 μg/ml) was added to activate T cells at time 0 seconds. The ratio FL-1/FL-3 is directly related to the intracellular calcium concentration and is expressed in arbitrary units (AU).

[3] = test system: IFN-gamma production by CD3+ T cells; details: at concentrations less than 0.5 mM
[4] = Phase I and II studies in patients with advanced cancer; assay type: in vivo, human; details: oral doses at 150 to 300 mg/day
[5] = target: calcium-independent protein kinase C isoform δ (Homo sapiens, UniProt Q05655); details: cited from earlier work
[6] = test system: IL-2 production by CD3+ T cells; details: at concentrations less than 0.5 mM
[7] = target: calcium-independent protein kinase C isoform η (Homo sapiens, UniProt P24723); details: cited from earlier work
[8] = target: T1, calcium-independent protein kinase C isoform ε (Homo sapiens, UniProt Q02156); details: cited from earlier work
T1 sequence (Q02156 1-737): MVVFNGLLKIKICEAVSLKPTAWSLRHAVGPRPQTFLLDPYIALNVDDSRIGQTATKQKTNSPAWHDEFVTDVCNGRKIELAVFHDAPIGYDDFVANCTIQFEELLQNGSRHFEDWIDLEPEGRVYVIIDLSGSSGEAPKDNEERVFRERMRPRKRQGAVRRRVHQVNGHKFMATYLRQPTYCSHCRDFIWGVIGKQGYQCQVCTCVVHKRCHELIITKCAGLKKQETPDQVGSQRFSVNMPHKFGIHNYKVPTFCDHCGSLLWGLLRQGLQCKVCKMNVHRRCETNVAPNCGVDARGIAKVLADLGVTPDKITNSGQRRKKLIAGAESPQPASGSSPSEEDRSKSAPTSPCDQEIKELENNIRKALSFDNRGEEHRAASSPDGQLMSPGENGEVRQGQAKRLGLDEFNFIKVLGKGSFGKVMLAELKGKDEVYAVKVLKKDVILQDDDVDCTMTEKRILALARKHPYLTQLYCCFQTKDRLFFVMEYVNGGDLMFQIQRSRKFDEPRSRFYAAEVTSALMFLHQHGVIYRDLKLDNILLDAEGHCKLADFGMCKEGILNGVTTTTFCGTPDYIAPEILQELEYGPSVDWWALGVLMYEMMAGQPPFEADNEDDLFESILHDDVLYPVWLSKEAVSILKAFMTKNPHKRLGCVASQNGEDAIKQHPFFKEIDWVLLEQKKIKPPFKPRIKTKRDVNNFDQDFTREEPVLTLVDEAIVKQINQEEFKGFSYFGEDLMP

[9] = target: conventional protein kinase C isoform β (Homo sapiens, UniProt P05771); details: cited from earlier work
[10] = target: conventional protein kinase C isoform γ (Homo sapiens, UniProt P05129); details: cited from earlier work
[11] = target: conventional protein kinase C isoform α (Homo sapiens, UniProt P17252); details: cited from earlier work

Sequence of calcium-independent protein kinase C isoform η (P24723 whole entry, canonical isoform): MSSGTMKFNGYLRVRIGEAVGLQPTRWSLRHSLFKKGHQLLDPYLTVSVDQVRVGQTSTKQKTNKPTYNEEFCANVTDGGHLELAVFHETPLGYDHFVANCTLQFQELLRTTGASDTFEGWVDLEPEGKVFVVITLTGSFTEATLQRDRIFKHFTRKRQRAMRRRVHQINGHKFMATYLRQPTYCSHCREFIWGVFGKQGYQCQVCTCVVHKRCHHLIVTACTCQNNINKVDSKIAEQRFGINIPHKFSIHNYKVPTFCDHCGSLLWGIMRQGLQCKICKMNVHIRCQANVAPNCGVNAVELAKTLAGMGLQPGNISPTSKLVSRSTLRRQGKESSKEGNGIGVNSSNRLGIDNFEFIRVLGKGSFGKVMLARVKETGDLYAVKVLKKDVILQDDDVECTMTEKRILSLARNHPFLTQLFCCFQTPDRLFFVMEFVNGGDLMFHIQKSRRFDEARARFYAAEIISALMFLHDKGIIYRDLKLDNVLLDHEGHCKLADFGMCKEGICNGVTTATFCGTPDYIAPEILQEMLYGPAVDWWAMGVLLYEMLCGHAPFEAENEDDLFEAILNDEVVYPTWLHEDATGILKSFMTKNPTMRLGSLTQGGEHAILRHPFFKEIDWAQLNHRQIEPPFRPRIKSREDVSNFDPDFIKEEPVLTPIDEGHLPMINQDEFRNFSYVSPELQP
Sequence of calcium-independent protein kinase C isoform δ (Q05655 whole entry, canonical isoform): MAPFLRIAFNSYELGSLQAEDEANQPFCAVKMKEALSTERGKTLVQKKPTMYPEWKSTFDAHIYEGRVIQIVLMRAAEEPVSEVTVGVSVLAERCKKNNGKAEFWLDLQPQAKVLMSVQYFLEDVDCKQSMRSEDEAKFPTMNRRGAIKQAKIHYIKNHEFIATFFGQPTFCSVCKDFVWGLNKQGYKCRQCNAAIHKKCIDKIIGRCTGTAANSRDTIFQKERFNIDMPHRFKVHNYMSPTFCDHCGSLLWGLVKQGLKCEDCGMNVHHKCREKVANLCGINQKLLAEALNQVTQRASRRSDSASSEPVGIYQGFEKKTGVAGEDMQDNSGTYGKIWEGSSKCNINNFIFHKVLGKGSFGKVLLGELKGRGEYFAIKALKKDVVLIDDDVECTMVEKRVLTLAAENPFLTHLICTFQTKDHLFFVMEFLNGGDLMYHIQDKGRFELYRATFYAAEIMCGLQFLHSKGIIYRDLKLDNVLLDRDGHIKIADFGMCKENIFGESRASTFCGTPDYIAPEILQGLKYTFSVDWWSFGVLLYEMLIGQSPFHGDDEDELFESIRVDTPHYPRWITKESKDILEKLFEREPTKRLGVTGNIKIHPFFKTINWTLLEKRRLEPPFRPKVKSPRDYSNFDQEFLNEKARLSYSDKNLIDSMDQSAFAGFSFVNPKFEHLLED
Sequence of conventional protein kinase C isoform β (P05771 whole entry, canonical isoform): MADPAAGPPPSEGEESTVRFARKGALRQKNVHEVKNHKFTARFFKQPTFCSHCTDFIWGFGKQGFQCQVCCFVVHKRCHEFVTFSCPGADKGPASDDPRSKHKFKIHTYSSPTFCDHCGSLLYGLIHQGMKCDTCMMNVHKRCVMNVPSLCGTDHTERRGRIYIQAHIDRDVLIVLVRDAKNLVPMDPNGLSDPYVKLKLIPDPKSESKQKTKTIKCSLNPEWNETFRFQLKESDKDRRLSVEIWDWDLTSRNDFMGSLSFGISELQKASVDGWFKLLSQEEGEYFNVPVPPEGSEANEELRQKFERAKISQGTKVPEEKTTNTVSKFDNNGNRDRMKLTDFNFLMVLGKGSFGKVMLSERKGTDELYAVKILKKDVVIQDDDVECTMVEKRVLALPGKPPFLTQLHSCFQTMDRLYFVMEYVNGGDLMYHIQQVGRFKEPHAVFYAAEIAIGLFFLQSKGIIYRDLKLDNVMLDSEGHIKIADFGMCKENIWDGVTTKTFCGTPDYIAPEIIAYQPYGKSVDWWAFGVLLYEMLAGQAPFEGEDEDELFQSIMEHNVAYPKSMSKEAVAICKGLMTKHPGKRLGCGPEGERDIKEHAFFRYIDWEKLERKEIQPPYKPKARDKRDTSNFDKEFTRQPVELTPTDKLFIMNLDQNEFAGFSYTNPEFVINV

## CO[C@@H]1[C@H](N(C)C(=O)c2ccccc2)C[C@H]2O[C@]1(C)n1c3ccccc3c3c4c(c5c6ccccc6n2c5c31)C(=O)NC4 [Compound I, midostaurin]
[1]; C I 0.05 mM with CsA 50 ng/ml
  cpm (mean 3H-thymidine incorporation): 8472 cpm
[1]; C I 0.05 mM with CsA 100 ng/ml
  cpm (mean 3H-thymidine incorporation): 7307 cpm
[1]; C I 0.05 mM, no CsA
  cpm (mean 3H-thymidine incorporation): 11944 cpm
[1]; C I 0.1 mM with CsA 50 ng/ml
  cpm (mean 3H-thymidine incorporation): 5260 cpm
[1]; C I 0.1 mM with CsA 100 ng/ml
  cpm (mean 3H-thymidine incorporation): 3162 cpm
[1]; C I 0.1 mM, no CsA
  cpm (mean 3H-thymidine incorporation): 9005 cpm
[1]; C I 1 mM with CsA 50 ng/ml
  cpm (mean 3H-thymidine incorporation): 1082 cpm
[1]; C I 1 mM with CsA 100 ng/ml
  cpm (mean 3H-thymidine incorporation): 642 cpm
[1]; C I 1 mM, no CsA
  cpm (mean 3H-thymidine incorporation): 2556 cpm
[2]
  intracellular calcium response to PHA: blunts
[3]
  effect on IFN-gamma production by CD3+ T cells: slightly increases
[4]
  serum levels: micromolar range
[5]
  inhibition of protein kinase C isoform δ (inhibitory concentration): nanomolar concentrations
[6]
  effect on IL-2 production by CD3+ T cells: slightly increases
[7]
  inhibition of protein kinase C isoform η (inhibitory concentration): nanomolar concentrations
[8]
  inhibition of protein kinase C isoform ε (inhibitory concentration): nanomolar concentrations
[9]
  inhibition of protein kinase C isoform β (inhibitory concentration): nanomolar concentrations
[10]
  inhibition of protein kinase C isoform γ (inhibitory concentration): nanomolar concentrations
[11]
  inhibition of protein kinase C isoform α (inhibitory concentration): nanomolar concentrations
